One data set deals with PPARα. Kind of data set: hPPARa reporter bioassay (Gal4-hPPAR / UAS-luciferase) in HeLa cells. Format: cell-based. The conditions noted are these: human HeLa cells, dose response. The source says: (§1) In more detail, when PPARs fix their ligands they are able to shuttle from cytoplasm to the nucleus of HeLa cells. Then, PPARs heterodimerize with co-receptors called Retinoid-X-Receptors (RXR). Heterodimeric transcription factors PPAR/RXR are responsible for PPARs-mediated transcriptional program. In this system, hPPARs are fused to Gal4. Gal4 is a yeast transcription activator which specifically binds a Gal4 responsive element so-called Upstream Activation Sequence (UAS)— this short section in a promoter region strongly activates gene transcription. Therefore, cotransfection of Gal4-hPPARs with UAS-luciferase constructs allows identification hPPARs agonists. Agonists will stimulate luciferase transcription resulting in the formation of a functional enzyme that converts substrate to detectable signal by a chemiluminescent reaction.
(§2) The assays detect binding of a ligand to the hPPAR of interest by directly measuring luciferase activity. When PPARs fixe their ligands they are able to shuttle from cytoplasm to the nucleus of HeLa cells. Then, PPARs heterodimerize with co-receptors called Retinoid-X-Receptors (RXR). […]
(§3) An edible plant fraction library was tested for PPARs agonist activity and toxicity. Then relevant plant fractions were further analyzed and bioactive(s) characterized and validated with the same hPPARa, hPPARg or hPPARd reporter bioassays. […]

The next data set concerns PPARγ. Kind of data set: hPPARg reporter bioassay (Gal4-hPPAR / UAS-luciferase) in HeLa cells. The conditions noted are these: human HeLa cells, dose response. Format: cell-based.
Source text: as §1, §2, §3

Another data set concerns HeLa cells. Kind of data set: Cellular toxicity, standard method, compared to untreated cells. Particulars: up to highest dose used. The class given is cell-based, human. The protocol: The AC50 (upper part of the insert) and the maximum % activation (lower part of the insert) are given. Cellular toxicity was also assessed with standard method compared to untreated cells and shown in % of toxicity.
An edible plant fraction library was tested for PPARs agonist activity and toxicity. Then relevant plant fractions were further analyzed and bioactive(s) characterized and validated with the same hPPARa, hPPARg or hPPARd reporter bioassays. The reporter bioassay we used in order to identify anti-inflammatory plant properties targeted activation of human PPARs in human HeLa cells (as described in the FIG. 1). All isolated bioactives were tested in a dose response manner in duplicate. Assays were repeated 3-4 times. Shown are mean values obtained. Therefore specificity (for all the three known human PPAR receptors namely PPARα, PPARd and PPARg) and efficacy (full agonist i.e. % maximal activity >100% or partial agonist i.e. % maximal activity <100%) were tested (FIG. 2-4).

`COc1cc([C@@H]2c3cc4c(c(O)c3C[C@H]3COC(=O)[C@@H]32)OCO4)cc(OC)c1OC` [β-peltatin]: the “agonistic activity on PPARα” value in the data set on PPARα is on record as “dual agonistic activity”. Further, the “agonistic activity on PPARγ” value in the data set on PPARγ is “dual agonistic activity”. Moreover, the “cellular toxicity (% of toxicity)” value in the data set with HeLa cells (FIG. 2, alongside PPARα activation dose-response) is on record as “no toxicity was observed”; in the data set on HeLa cells (FIG. 3, alongside PPARg activation dose-response), “no toxicity was observed”; in the data set with HeLa cells (FIG. 4, alongside PPARd activation dose-response), “no toxicity was observed”.
For `COc1cc([C@@H]2c3cc4c(cc3[C@H](O)[C@H]3COC(=O)[C@H]23)OCO4)cc(OC)c1OC` [podophyllotoxin], the “agonistic activity on PPARα” value in the data set with PPARα is listed as “dual agonistic activity”. Moreover, the “agonistic activity on PPARγ” value in the data set on PPARγ is on record as “dual agonistic activity”.

Values taken from US20150057344A1, “PELTATIN FOR THE TREATMENT OF CHRONIC INFLAMMATORY DISORDERS” (priority 2012, published 2015).
